Experimental data reported in patent US20060293317A1, “Use of non-steroidal progesterone receptor modulators” (priority 2005, published 2006).
pIC50: −log10 of the molar value.

Target: T1, PR-B progesterone receptor (Homo sapiens, UniProt P06401)
T1 sequence (P06401 1-933): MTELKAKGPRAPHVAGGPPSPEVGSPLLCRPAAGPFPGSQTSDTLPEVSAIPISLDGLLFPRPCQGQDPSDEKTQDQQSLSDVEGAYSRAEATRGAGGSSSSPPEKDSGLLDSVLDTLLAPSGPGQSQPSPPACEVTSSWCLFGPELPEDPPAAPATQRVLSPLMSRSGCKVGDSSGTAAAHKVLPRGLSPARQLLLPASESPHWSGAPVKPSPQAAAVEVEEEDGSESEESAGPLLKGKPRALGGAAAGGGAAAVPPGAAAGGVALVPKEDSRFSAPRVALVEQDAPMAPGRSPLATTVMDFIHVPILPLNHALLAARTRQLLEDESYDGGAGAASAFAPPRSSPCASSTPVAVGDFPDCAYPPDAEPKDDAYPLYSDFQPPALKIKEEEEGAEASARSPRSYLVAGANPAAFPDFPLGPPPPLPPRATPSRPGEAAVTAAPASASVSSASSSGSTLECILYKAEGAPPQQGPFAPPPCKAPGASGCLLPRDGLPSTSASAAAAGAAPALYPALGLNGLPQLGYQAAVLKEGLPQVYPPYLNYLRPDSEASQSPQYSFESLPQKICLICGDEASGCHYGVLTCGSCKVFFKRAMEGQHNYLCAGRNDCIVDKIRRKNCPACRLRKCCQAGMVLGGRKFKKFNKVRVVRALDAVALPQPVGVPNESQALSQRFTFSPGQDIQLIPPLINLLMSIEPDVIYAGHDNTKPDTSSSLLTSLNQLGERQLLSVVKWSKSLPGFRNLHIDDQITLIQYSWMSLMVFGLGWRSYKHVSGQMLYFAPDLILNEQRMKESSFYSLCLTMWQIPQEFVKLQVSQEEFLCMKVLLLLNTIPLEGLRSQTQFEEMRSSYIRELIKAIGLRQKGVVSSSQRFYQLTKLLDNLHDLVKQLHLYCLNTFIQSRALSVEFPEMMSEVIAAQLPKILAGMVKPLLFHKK
Assay: Antagonism at the PR-B progesterone receptor (transactivation assay)
Assay type: cell-based
Description: Antagonism at the PR-B Progesterone Receptor
The transactivation assay is carried out as described in WO 02/054064.

Cc1noc(=O)c2ccc(NC(=O)C(O)(Cc3ccccc3)CC(C)(C)c3ccccc3)cc12 (centres unmarked) [compound 88]
Antagonistic activity Efficacy (transactivation assay as in WO 02/054064): 100% | pIC50 (transactivation assay as in WO 02/054064, read-out: Antagonistic activity IC50): 9.52
